Experimental data reported in ChEMBL document CHEMBL3885881, “DrugMatrix”.

Species: Rattus norvegicus
Assay: DrugMatrix - Regimen: Daily Repeat
Format: toxicity, organism-based, Sprague-Dawley
Design: regimen Daily Repeat, gender Male, age 6-8 weeks
Settings: in vivo, po, route oral GAVAGE, vehicle 100 % WATER; for BASOPHIL / EOSINOPHIL / ERYTHROCYTE COUNT / HEMATOCRIT / HEMOGLOBIN / LEUKOCYTE COUNT / LYMPHOCYTE / MEAN CORPUSCULAR HEMOGLOBIN / MEAN CORPUSCULAR HEMOGLOBIN CONCENTRATION / MEAN CORPUSCULAR VOLUME / MONOCYTE / NEUTROPHIL / PLATELET COUNT: tissue Blood; for ALANINE AMINOTRANSFERASE / ALBUMIN / ALKALINE PHOSPHATASE / ASPARTATE AMINOTRANSFERASE / BLOOD UREA NITROGEN / CHLORIDE / CHOLESTEROL / CREATINE PHOSPHOKINASE / CREATININE / GLUCOSE / PHOSPHORUS / POTASSIUM / SODIUM / TOTAL BILIRUBIN / TOTAL PROTEIN: tissue Plasma
[1] = 0 mg/kg, 72 h, dose level Control, time 3 day
[2] = 0 mg/kg, 120 h, dose level Control, time 5 day
[3] = 100 mg/kg, 72 h, dose level Low, time 3 day

For Oc1cccc(O)c1O [PYROGALLOL], the BASOPHIL [1] was 0%, the EOSINOPHIL [1] was 0.5% and the “ERYTHROCYTE COUNT” value [1] was 5.8 x10E6/uL. The HEMATOCRIT [1] was 35.07%, the HEMOGLOBIN [1] was 14.12 G/DL and the “LEUKOCYTE COUNT” value [1] was 13.7 x10E3/uL. The LYMPHOCYTE [1] was 82.33%, the “MEAN CORPUSCULAR HEMOGLOBIN” value [1] was 24.38 pg and the “MEAN CORPUSCULAR HEMOGLOBIN CONCENTRATION” value [1] was 40.28 G/DL. For the same molecule, the “MEAN CORPUSCULAR VOLUME” value [1] was 60.52 fL, the MONOCYTE [1] was 2.67% and the NEUTROPHIL [1] was 14.5%. The “PLATELET COUNT” value [1] was 911.5 x10E3/uL, the “ALANINE AMINOTRANSFERASE” value [1] was 36.83 u/L and the ALBUMIN [1] was 3.75 G/DL. The “ALKALINE PHOSPHATASE” value [1] was 399.83 u/L, the “ASPARTATE AMINOTRANSFERASE” value [1] was 66 u/L and the “BLOOD UREA NITROGEN” value [1] was 14.67 mg/dL. For the same molecule, the CHLORIDE [1] was 101.67 MEQ/L, the CHOLESTEROL [1] was 66.33 mg/dL and the “CREATINE PHOSPHOKINASE” value [1] was 139.5 u/L. For the same molecule, the CREATININE [1] was 0.92 mg/dL, the GLUCOSE [1] was 175 mg/dL and the PHOSPHORUS [1] was 11.42 mg/dL. For the same molecule, the POTASSIUM [1] was 7.03 MEQ/L, the SODIUM [1] was 148.5 MEQ/L and the “TOTAL BILIRUBIN” value [1] was 1.13 mg/dL. For the same molecule, the “TOTAL PROTEIN” value [1] was 6.87 G/DL, the BASOPHIL [2] was 0% and the EOSINOPHIL [2] was 0.2%. For the same molecule, the “ERYTHROCYTE COUNT” value [2] was 6.02 x10E6/uL, the HEMATOCRIT [2] was 36.48% and the HEMOGLOBIN [2] was 14.38 G/DL. The “LEUKOCYTE COUNT” value [2] was 12.34 x10E3/uL, the LYMPHOCYTE [2] was 83% and the “MEAN CORPUSCULAR HEMOGLOBIN” value [2] was 23.92 pg. For the same molecule, the “MEAN CORPUSCULAR HEMOGLOBIN CONCENTRATION” value [2] was 39.44 G/DL, the “MEAN CORPUSCULAR VOLUME” value [2] was 60.66 fL and the MONOCYTE [2] was 3%. The NEUTROPHIL [2] was 13.8%, the “PLATELET COUNT” value [2] was 1190.6 x10E3/uL and the “ALANINE AMINOTRANSFERASE” value [2] was 43 u/L. For the same molecule, the ALBUMIN [2] was 3.73 G/DL, the “ALKALINE PHOSPHATASE” value [2] was 393 u/L and the “ASPARTATE AMINOTRANSFERASE” value [2] was 62.33 u/L. For the same molecule, the “BLOOD UREA NITROGEN” value [2] was 16.33 mg/dL, the CHLORIDE [2] was 101.67 MEQ/L and the CHOLESTEROL [2] was 65.5 mg/dL. The “CREATINE PHOSPHOKINASE” value [2] was 130.67 u/L, the CREATININE [2] was 0.58 mg/dL and the GLUCOSE [2] was 180.67 mg/dL. The PHOSPHORUS [2] was 11.28 mg/dL, the POTASSIUM [2] was 7.05 MEQ/L and the SODIUM [2] was 148.17 MEQ/L. For the same molecule, the “TOTAL BILIRUBIN” value [2] was 0.72 mg/dL, the “TOTAL PROTEIN” value [2] was 6.83 G/DL and the BASOPHIL [3] was 0%. For the same molecule, the EOSINOPHIL [3] was 0.5%, the “ERYTHROCYTE COUNT” value [3] was 5.78 x10E6/uL and the HEMATOCRIT [3] was 35.75%. The HEMOGLOBIN [3] was 13.85 G/DL, the “LEUKOCYTE COUNT” value [3] was 11.7 x10E3/uL and the LYMPHOCYTE [3] was 88%. For the same molecule, the “MEAN CORPUSCULAR HEMOGLOBIN” value [3] was 24.05 pg, the “MEAN CORPUSCULAR HEMOGLOBIN CONCENTRATION” value [3] was 38.75 G/DL and the “MEAN CORPUSCULAR VOLUME” value [3] was 61.95 fL. For the same molecule, the MONOCYTE [3] was 1%, the NEUTROPHIL [3] was 10.5% and the “PLATELET COUNT” value [3] was 1307.5 x10E3/uL. The “ALANINE AMINOTRANSFERASE” value [3] was 36.33 u/L, the ALBUMIN [3] was 3.67 G/DL and the “ALKALINE PHOSPHATASE” value [3] was 323 u/L. For the same molecule, the “ASPARTATE AMINOTRANSFERASE” value [3] was 59.33 u/L, the “BLOOD UREA NITROGEN” value [3] was 13 mg/dL and the CHLORIDE [3] was 101.33 MEQ/L. For the same molecule, the CHOLESTEROL [3] was 71 mg/dL, the “CREATINE PHOSPHOKINASE” value [3] was 134.67 u/L and the CREATININE [3] was 0.6 mg/dL. For the same molecule, the GLUCOSE [3] was 200 mg/dL, the PHOSPHORUS [3] was 13.27 mg/dL and the POTASSIUM [3] was 7.37 MEQ/L. For the same molecule, the SODIUM [3] was 149.67 MEQ/L, the “TOTAL BILIRUBIN” value [3] was 0.5 mg/dL and the “TOTAL PROTEIN” value [3] was 6.67 G/DL.
